According to US20140271831A1, “RACECADOTRIL LIQUID COMPOSITIONS” (McNeil-PPC, Inc., priority 2013, published 2014):

Assays:
Format in all cases: physicochemical
[1] = Solubility of racecadotril in water, buffer and Beta-HPCD (statements)
[2] = Stability of Racecadotril in Buffer Solutions
Experimental: (§1) For comparative purposes, the stability of racecadotril was analyzed when solubilized in pH 4.5 Acetate buffer and pH 4.5 Citrate buffer (Table 3). • 1. Pipet 1 mL of Racecadotril solution into a 100 mL volumetric flask (V.F.) • 2. Dilute to volume with the same buffer used in the solution preparation. • 3. […] Parameters may be modified to optimize chromatography. • The assay of Racecadotril is determined by using the external standard injected. The degradation products levels are determined by % peak area relative to the Racecadotril peak. [table] [table] Mobil Phase A: Phosphate buffer, pH 2.5 (Buffer prep: dissolve 1 g of potassium dihydrogen phosphate in water, adjust to pH 2.5 with phosphoric acid, dilute to 1000 mL with water) Mobil Phase B: 100% Acetonitrile

[3] = Stability of Racecadotril in Water
Experimental: as §1, with “tested at room temperature” for “analyzed when solubilized in pH 4.5 Acetate buffer”, “at 40° C.” for “pH 4.5 Citrate buffer (Table 3).”

Structure (SMILES): CC(=O)SCC(Cc1ccccc1)C(=O)NCC(=O)OCc1ccccc1 (racemic) [Racecadotril]
- solubility in buffer compared with water [1]: more soluble in buffer than in water
- solubility utilizing the Beta-HPCD compared with buffers alone [1]: higher solubility
- Racecadotril in pH 4.5 Acetate Buffer at 40° C. (% Racecadotril) ([2]; 1 Week): 96.7%
- Racecadotril in pH 4.5 Citrate Buffer at 40° C. (% Racecadotril) ([2]; 1 Week): 95.3%
- Racecadotril in pH 4.5 Acetate Buffer at 40° C. (% Racecadotril) ([2]; 2 Weeks): 93.3%
- Racecadotril in pH 4.5 Citrate Buffer at 40° C. (% Racecadotril) ([2]; 2 Weeks): 91.2%
- Racecadotril in pH 4.5 Acetate Buffer at 40° C. (% Racecadotril) ([2]; 3 Weeks): 91.5%
- Racecadotril in pH 4.5 Citrate Buffer at 40° C. (% Racecadotril) ([2]; 3 Weeks): 89.0%
- Racecadotril in pH 4.5 Acetate Buffer at 40° C. (% Racecadotril) ([2]; 4 Weeks): 88.0%
- Racecadotril in pH 4.5 Citrate Buffer at 40° C. (% Racecadotril) ([2]; 4 Weeks): 85.4%
- Racecadotril in pH 4.5 Acetate Buffer at 40° C. (% Racecadotril) ([2]; 12 Hours): 99.69%
- Racecadotril in pH 4.5 Citrate Buffer at 40° C. (% Racecadotril) ([2]; 12 Hours): 99.63%
- stability in buffer compared with water ([2]; 40° C. and 4 weeks): more stable in a buffer than in water
- Racecadotril in pH 4.5 Acetate Buffer at 40° C. (% Racecadotril) ([2]; Initial): 99.86%
- Racecadotril in pH 4.5 Citrate Buffer at 40° C. (% Racecadotril) ([2]; Initial): 99.74%
- Racecadotril (%) in Water at 40° C. ([3]; 1 Week): 0%
- Racecadotril (%) in Water at Room Temperature ([3]; 1 Week): 1.0%
- Racecadotril (%) in Water at 40° C. ([3]; 2 Weeks): 0.2%
- Racecadotril (%) in Water at Room Temperature ([3]; 2 Weeks): 0.0%
- Racecadotril (%) in Water at Room Temperature ([3]; 12 Hours): 44.9%
- Racecadotril (%) in Water at 40° C. ([3]; Initial): 78.88%
- Racecadotril (%) in Water at Room Temperature ([3]; Initial): 74.88%
- racecadotril present ([3]; in water, at 1 week): less than 1%
- stability of racecadotril in water ([3]; room temperature and 40° C., after 12 hours): unstable
